Inhibition data for 31 molecules are collected here from patent US10251889B2, “Substituted pyrazolo[1,5-a]pyrimidine compounds as Trk kinase inhibitors” (Array BioPharma, Inc., priority 2009, dated 2019).

SMILES strings stand for the structures. Counter-ions that a name gives are not always drawn.

Sequence of Jak2 (human Jak2 kinase domain, amino acids 808-1132) (O60674 808-1132): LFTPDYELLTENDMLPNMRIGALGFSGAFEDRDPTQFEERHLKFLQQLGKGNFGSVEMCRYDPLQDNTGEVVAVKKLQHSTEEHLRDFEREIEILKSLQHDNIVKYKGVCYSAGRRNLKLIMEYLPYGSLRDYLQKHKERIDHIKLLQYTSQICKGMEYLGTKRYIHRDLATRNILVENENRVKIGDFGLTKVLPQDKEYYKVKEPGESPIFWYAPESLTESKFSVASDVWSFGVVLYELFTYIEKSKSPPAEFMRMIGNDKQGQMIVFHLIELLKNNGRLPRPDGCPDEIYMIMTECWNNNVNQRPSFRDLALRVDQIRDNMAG

One assay concerns the target Jak2 (human Jak2 kinase domain, amino acids 808-1132) (Homo sapiens (Human), UniProt O60674). Description: Jak2 inhibition assay (Omnia kinase assay). It is filed as biochemical. The settings on record: read-out: Jak2 Enzyme (% inhibition at 1000 nM).
Regarding `O=C(N[C@@H]1CCNC[C@@H]1F)c1cnn2ccc(N3CCC[C@@H]3c3cc(F)ccc3F)nc12` [Example 61, 5-((R)-2-(2,5-difluorophenyl)pyrrolidin-1-yl)-N-((3S,4R)-3-fluoropiperidin-4-yl)pyrazolo[1,5-a]pyrimidine-3-carboxamide Hydrochloride], the inhibition (usually how much of the control response was suppressed) at 1 µM was 54.4%.

The assay is the same for the next values; noted with them: read-out: Jak2 Enzyme (% inhibition at 1000 nM), Table 1; 1000 nM test compound.
As for `COc1ccc(F)cc1[C@H]1CCCN1c1ccn2ncc(C(=O)NCC(C)(C)O)c2n1` [Example 49, (R)-5-(2-(5-fluoro-2-methoxyphenyl)pyrrolidin-1-yl)-N-(2-hydroxy-2-methylpropyl)pyrazolo[1,5-a]pyrimidine-3-carboxamide], the inhibition at 1 µM came to 17.2%. On the same count and under the same terms, with `CC(C)(CO)NC(=O)c1cnn2ccc(N3CCC[C@@H]3c3cncc(F)c3)nc12` [Example 132] the figure was 3.7%; with `Cc1ncc(F)cc1[C@H]1CCCN1c1ccn2ncc(C(=O)N[C@@H]3CCC[C@H]3O)c2n1` [Example 197, 5-((R)-2-(5-fluoro-2-methylpyridin-3-yl)pyrrolidin-1-yl)-N-((1R,2R)-2-hydroxycyclopentyl)pyrazolo[1,5-a]pyrimidine-3-carboxamide], 3.6%. On the same count and under the same terms, with `O=C(NC1CC1)c1cnn2ccc(N3CCC[C@@H]3c3cc(F)ccc3OCCN3CCOCC3)nc12` [Example 87, (R)—N-cyclopropyl-5-(2-(5-fluoro-2-(2-morpholinoethoxy)phenyl)pyrrolidin-1-yl)pyrazolo[1,5-a]pyrimidine-3-carboxamide] the figure was 37.2%; with `Cc1ncc(F)cc1[C@H]1CCCN1c1ccn2ncc(C(=O)NC(C)C)c2n1` [Example 184, (R)-5-(2-(5-fluoro-2-methylpyridin-3-yl)pyrrolidin-1-yl)-N-isopropylpyrazolo[1,5-a]pyrimidine-3-carboxamide], 11.8%; with `CNC(=O)c1cnn2ccc(N3C[C@H](O)C[C@@H]3c3cccc(F)c3)nc12` [Example 43, 5-((2R,4R)-2-(3-fluorophenyl)-4-hydroxypyrrolidin-1-yl)-N-methylpyrazolo[1,5-a]pyrimidine-3-carboxamide], 4.2%. The same measure, in the same setting: in the case of `O=C(N[C@H]1CC[C@H](O)C1)c1cnn2ccc(N3CCC[C@@H]3c3cc(F)ccc3F)nc12` [Example 169, 5-((R)-2-(2,5-difluorophenyl)pyrrolidin-1-yl)-N-((1S,3S)-3-hydroxycyclopentyl)pyrazolo[1,5-a]pyrimidine-3-carboxamide] it was 51.9%; in that of `CN(C)C(=O)c1cnn2ccc(N3CCC[C@@H]3c3cc(F)ccc3F)nc12` [Example 27, (R)-5-(2-(2,5-difluorophenyl)pyrrolidin-1-yl)-N,N-dimethylpyrazolo[1,5-a]pyrimidine-3-carboxamide], 1.3%. Turning to `CC(C)NC(=O)c1cnn2ccc(N3C[C@@H](O)C[C@@H]3c3cccc(F)c3)nc12` [Example 217, 5-((2R,4S)-2-(3-fluorophenyl)-4-hydroxypyrrolidin-1-yl)-N-isopropylpyrazolo[1,5-a]pyrimidine-3-carboxamide], the inhibition at 1 µM turned out to be 61.7%. Still for that read-out and setting: in the case of `Cn1cc(F)cc([C@H]2CCCN2c2ccn3ncc(C(=O)NC4(C)CC4)c3n2)c1=O` [Example 237, (R)-5-(2-(5-fluoro-1-methyl-2-oxo-1,2-dihydropyridin-3-yl)pyrrolidin-1-yl)-N-(1-methylcyclopropyl)pyrazolo[1,5-a]pyrimidine-3-carboxamide] it was 51.9%; in that of `CC(C)(CO)CNC(=O)c1cnn2ccc(N3CCC[C@@H]3c3cncc(F)c3)nc12` [Example 125, (R)-5-(2-(5-fluoropyridin-3-yl)pyrrolidin-1-yl)-N-(3-hydroxy-2,2-dimethylpropyl)pyrazolo[1,5-a]pyrimidine-3-carboxamide], 6.1%. Take `C[C@H](NC(=O)c1cnn2ccc(N3CCC[C@@H]3c3cncc(F)c3)nc12)C(F)(F)F` [Example 130, 5-((R)-2-(5-fluoropyridin-3-yl)pyrrolidin-1-yl)-N-((S)-1,1,1-trifluoropropan-2-yl)pyrazolo[1,5-a]pyrimidine-3-carboxamide]: the inhibition at 1 µM worked out at 27.9%. The same measure, in the same setting: with `COCCOc1cc(F)cc([C@H]2CCCN2c2ccn3ncc(C(=O)NC4CC4)c3n2)c1` [Example 77, (R)—N-cyclopropyl-5-(2-(3-fluoro-5-(2-methoxyethoxy)phenyl)pyrrolidin-1-yl)pyrazole [1,5-a]pyrimidine-3-carboxamide] the figure was 15.3%. On the same count and under the same terms, in the case of `O=C(N[C@H]1CC[C@H](O)CC1)c1cnn2ccc(N3CCC[C@@H]3c3cc(F)ccc3F)nc12` [Example 7, 5-((R)-2-(2,5-difluorophenyl)pyrrolidin-1-yl)-N-((trans)-4-hydroxycyclohexyl)pyrazolo[1,5-a]pyrimidine-3-carboxamide] it was 90%; in that of `C[C@H](NC(=O)c1cnn2ccc(N3C[C@@H](O)C[C@@H]3c3cccc(F)c3)nc12)C(F)(F)F` [Example 216, 5-((2R,4S)-2-(3-fluorophenyl)-4-hydroxypyrrolidin-1-yl)-N—((S)-1,1,1-trifluoropropan-2-yl)pyrazolo[1,5-a]pyrimidine-3-carboxamide], 54%. In the case of `CS(=O)(=O)N1CCC(NC(=O)c2cnn3ccc(N4CCC[C@@H]4c4cc(F)ccc4F)nc23)CC1` [Example 44, (R)-5-(2-(2,5-difluorophenyl)pyrrolidin-1-yl)-N-(1-(methylsulfonyl)piperidin-4-yl)pyrazolo[1,5-a]pyrimidine-3-carboxamide], the inhibition at 1 µM was found to be 71.5%.

Turning to `CONC(=O)c1cnn2ccc(N3CCC[C@@H]3c3cc(F)cnc3OC)nc12` [Example 83, (R)-5-(2-(5-fluoro-2-methoxypyridin-3-yl)pyrrolidin-1-yl)-N-methoxypyrazolo[1,5-a]pyrimidine-3-carboxamide], the inhibition at 1 µM turned out to be 26.3%. Still for that read-out and setting: with `Cn1ccc(NC(=O)c2cnn3ccc(N4CCC[C@@H]4c4cc(F)ccc4F)nc23)n1` [Example 6, (R)-5-(2-(2,5-difluorophenyl)pyrrolidin-1-yl)-N-(1-methyl-1H-pyrazol-3-yl)pyrazolo[1,5-a]pyrimidine-3-carboxamide] the figure was 12.9%.

As to `NC(=O)c1cnn2ccc(N3CCC[C@@H]3c3cc(F)cc(OCC(O)CO)c3)nc12` (stereo partly drawn) [Example 209, 5-((2R)-2-(3-(2,3-dihydroxypropoxy)-5-fluorophenyl)pyrrolidin-1-yl)pyrazolo[1,5-a]pyrimidine-3-carboxamide], the inhibition at 1 µM came to 5.4%.

For `Cc1ncc(F)cc1[C@H]1CCCN1c1ccn2ncc(C(=O)N3CC(O)C3)c2n1` [Example 192, (R)-(5-(2-(5-fluoro-2-methylpyridin-3-yl)pyrrolidin-1-yl)pyrazolo[1,5-a]pyrimidin-3-yl)(3-hydroxyazetidin-1-yl)methanone], the inhibition at 1 µM is 0.3%.

With `Cc1ncc(F)cc1[C@H]1CCCN1c1ccn2ncc(C(=O)N[C@H]3CN4CCC3CC4)c2n1` [Example 198, 5-((R)-2-(5-fluoro-2-methylpyridin-3-yl)pyrrolidin-1-yl)-N-((R)-quinuclidin-3-yl)pyrazolo[1,5-a]pyrimidine-3-carboxamide], the inhibition at 1 µM worked out at 1.6%.

Take `CC(C)(C)NC(=O)c1cnn2ccc(N3CCC[C@@H]3c3cc(F)ccc3F)nc12` [Example 1, (R)—N-tert-butyl-5-(2-(2,5-difluorophenyl)pyrrolidin-1-yl)pyrazolo[1,5-a]pyrimidine-3-carboxamide]: the inhibition at 1 µM stood at 39.5%. Regarding `CNC(=O)c1cnn2ccc(N3CCC[C@@H]3c3cc(F)ccc3F)nc12` [Example 10, (R)-5-(2-(2,5-difluorophenyl)pyrrolidin-1-yl)-N-methylpyrazolo[1,5-a]pyrimidine-3-carboxamide], the inhibition at 1 µM turned out to be 47.5%. Same read-out and setting: in the case of `NC(=O)c1cnn2ccc(N3CCC[C@@H]3c3cc(F)ccc3C(F)(F)F)nc12` [Example 64, (R)-5-(2-(5-fluoro-2-(trifluoromethyl)phenyl)pyrrolidin-1-yl)pyrazolo[1,5-a]pyrimidine-3-carboxamide] it was 60.3%. On the same count and under the same terms, with `O=C(NC1CC1)c1cnn2ccc(N3CCC[C@@H]3c3cc(F)cc(OCC(O)CO)c3)nc12` (stereo partly drawn) [Example 208, N-cyclopropyl-5-((2R)-2-(3-(2,3-dihydroxypropoxy)-5-fluorophenyl)pyrrolidin-1-yl)pyrazolo[1,5-a]pyrimidine-3-carboxamide] the figure was 21.2%; with `O=C(NC1(CO)CC1)c1cnn2ccc(N3CCC[C@@H]3c3cncc(F)c3)nc12` [Example 107, (R)-5-(2-(5-fluoropyridin-3-yl)pyrrolidin-1-yl)-N-(1-(hydroxymethyl)cyclopropyl)pyrazolo [1,5-a]pyrimidine-3-carboxamide], 7.1%. Consider `C[C@@H](NC(=O)c1cnn2ccc(N3CCC[C@@H]3c3cc(F)cn(C)c3=O)nc12)C1CC1` [Example 235, N-((R)-1-cyclopropylethyl)-5-((R)-2-(5-fluoro-1-methyl-2-oxo-1,2-dihydropyridin-3-yl)pyrrolidin-1-yl)pyrazolo[1,5-a]pyrimidine-3-carboxamide], for which the inhibition at 1 µM stood at 73.1%. On the same count and under the same terms, in the case of `C[C@@H](CO)NC(=O)c1cnn2ccc(N3CCC[C@@H]3c3cc(F)ccc3F)nc12` [Example 177, 5-((R)-2-(2,5-difluorophenyl)pyrrolidin-1-yl)-N-((S)-1-hydroxypropan-2-yl)pyrazolo[1,5-a]pyrimidine-3-carboxamide] it was 26.2%; in that of `O=C(NC[C@@H](O)CO)c1cnn2ccc(N3CCC[C@@H]3c3cc(F)ccc3C(F)(F)F)nc12` [Example 63, N—((R)-2,3-dihydroxypropyl)-5-((R)-2-(5-fluoro-2-(trifluoromethyl)phenyl)pyrrolidin-1-yl)pyrazolo[1,5-a]pyrimidine-3-carboxamide], 33.1%; in that of `COc1ncc(F)cc1[C@H]1CCCN1c1ccn2ncc(C(=O)NCCCNC(=O)OC(C)(C)C)c2n1` [Example 141, (R)-tert-butyl 3-(5-(2-(5-fluoro-2-methoxypyridin-3-yl)pyrrolidin-1-yl)pyrazolo[1,5-a]pyrimidine-3-carboxamido)propylcarbamate], 9.4%.
